# Counter-ions that a name gives are not always drawn.
# How the values were obtained:
# axonal degeneration = details: cited from earlier work
# [1] = test system: phosphorylation of JNK protein, a representative sub-regulatory marker of SARM1; details: MKN1 cells, Western blot, Hsp90 as housekeeping protein
# Method: Accordingly, in order to evaluate the axonal degeneration inhibitory effects of the compounds according to the present invention, the abilities of these compounds to inhibit SARM1 enzyme were analyzed. Specifically, whether phosphorylation of JNK protein, a representative sub-regulatory marker of SARM1, decreased, was evaluated by Western blot assay. A method for preparing the protein used in the Western blot assay is as follows. […] The entire cell lysate was fractionated using a centrifuge, and then only the solution containing the protein was extracted. The extracted protein was quantified by the Bradford method. The protein of the same concentration obtained through quantification was separated by SDS-polyacrylamide gel electrophoresis, and then transferred to a PVDF membrane. […] For visualization, an enhanced chemiluminescence system was used. Western blot assay was performed using JNK protein, a representative marker whose phosphorylation is regulated by SARM1, and the housekeeping protein Hsp90 was used for quantitative comparison of expression.
# [2] = test system: retinal ganglion cell axons; experiment: Tadpole optic nerve axotomy model, axon survival score (Experimental Example 4); format: in vivo, Xenopus tropicalis; details: axotomy at stage 43, evaluated 48 hours after axotomy, control DMSO
# Method: In order to verify the axon protective effect of the compound according to the present invention in the tadpole optic nerve axotomy model, an experiment was conducted in the same manner as in Experimental Example 3. Specifically, GFP-expressing DNA was delivered into one retina of a Xenopus tropicalis tadpole at stage 27 (before retinal development) by electroporation. At stage 43 (the time when the connection between the retina and the visual center of the brain is finished), axons of the epectroporated retina were axotomized, and the tissue was fixed at 24-hour intervals, followed by extraction of the brain. Next, the ventral midline of the brain was excised and unfolded, and then the GFP signal in the contra-lateral brain hemisphere was imaged with a confocal microscope (LSM700, Carl Zeiss, 20×, z-step 3 μm). Thereby, it was possible to observe retinal ganglion cell axons located along the optic tract extending from the optic chiasm to the optic tectum. […] Axonal degeneration could be quantified because the continuous GFP signal disappeared along the optic tract over time after axotomy. […] The degree of inhibition of axonal degeneration by the drug was evaluated 48 hours after axotomy. […] The percentage of healthy axons in the drug group relative to the control group taken as 100% was calculated and used as the axon survival score (0 to 100%).
# optic nerve axons = experiment: Tadpole optic nerve axotomy model, delay in Wallerian degeneration (Experimental Example 3); format: in vivo, Xenopus tropicalis; details: optic nerve axotomized at stage 41, 48 hours after treatment
# Method: In order to verify the axon protective effect of the compound according to the present invention in the tadpole optic nerve axotomy model, an experiment was conducted according to the design shown in FIG. 13. Specifically, an in vitro fertilized Xenopus tropicalis (African frog) embryo (Nasco, Fort Atkinson, Wis. 53538, USA) is cultured to stage 27, and then a plasmid DNA expressing Enhanced Green Fluorescence Protein (EGFP) is delivered into the retinal progenitor cells of one eye by an electroporation technique. After culturing to stage 41, the axons of the retinal ganglion cells expressing the green fluorescent protein reach the optic tectum of the contralateral brain hemisphere, and this axon bundle is referred to as the optic nerve. When the optic nerve is axotomized at stage 41, Wallerian degeneration occurs in which axons distal from the cell body degenerate by fragmentation over about 72 hours. […] Wallerian degeneration of the Xenopus optic nerve occur in a stereotypical pattern at 24 hours, 48 hours and 72 hours after axotomy, and the degree of delay in Wallerian degeneration was quantified as percentage by comparing the degree of Wallerian degeneration in the drug-treated group with this pattern.
smiles,measurement,setting,value
O=C(/C=C/c1cccnc1)NCCCCC1CCN(C(=O)c2ccccc2)CC1 [FK866],axonal degeneration,axonal degeneration,effect of partially inhibiting axonal degeneration
"O=C(NCc1ccc(-c2nc3ccc(Cl)cc3o2)cc1)c1cccnc1 [A4266, N-(4-(6-chlorobenzo[d]oxazol-2-yl)benzyl)nicotinamide]",JNK phosphorylation,[1],had the effect of inhibiting JNK phosphorylation
"CS(=O)(=O)c1ccc2oc(-c3ccc(CNC(=O)c4cccnc4)cc3)nc2c1 [A4510H, N-(4-(5-(methylsulfonyl)benzo[d]oxazol-2-yl)benzyl)nicotinamide hydrochloride]",axon protective effect (axon survival score),[2],exhibited an excellent axon protective effect
CC(C)(O)CS(=O)(=O)Nc1ccc2c(c1)CCN(C(=O)COc1cccnc1)C2 [LSN 3154567],axon protective effect (degree of delay in Wallerian degeneration),optic nerve axons,did not exhibit a significant axon protective effect
Nc1ccc(/C=C/C(=O)NCc2cc3cc(-c4ccc(C(=O)N5CCC(F)(F)CC5)cc4)cc(-c4ccc(F)cc4)c3o2)cn1 [KPT9274],axon protective effect (degree of delay in Wallerian degeneration),optic nerve axons,did not exhibit a significant axon protective effect
